The test system of the assay is Enterococcus faecium. The experiment in a line: Antibacterial activity against clinical isolate Enterococcus faecium assessed as reduction in microbial growth by broth microdilution. Type of assay: functional, organism-based. On the technique in general: Broth dilution looks for growth in wells or tubes with falling amounts of substance.

The values that follow come from ChEMBL document CHEMBL5120827, “Metabolomics and Genomics Approach for the Discovery of Serrawettin W2 Lipopeptides from Serratia marcescens NP2” (J Nat Prod, 2022).

The term MIC denotes the lowest concentration that inhibits growth of the organism. The term IC50 denotes the concentration needed to halve the response being measured.

For `CCCCCCCC1CC(=O)N[C@@H](CC(C)C)C(=O)N[C@@H](CO)C(=O)N[C@@H]([C@@H](C)O)C(=O)N[C@@H](Cc2ccccc2)C(=O)N[C@@H](C(C)C)C(=O)O1` (stereo not given in full), the minimal inhibitory concentration (MIC) is above 125 µg/mL.
Consider `CCCCCCCC1CC(=O)N[C@H](CC(C)C)C(=O)N[C@@H](CO)C(=O)N[C@@H]([C@@H](C)O)C(=O)N[C@@H](Cc2ccccc2)C(=O)N[C@@H](CC(C)C)C(=O)O1` (stereo not given in full), for which the half-maximal inhibitory concentration (IC50) amounted to 8.4 µg/mL and the MIC came to 15.6 µg/mL.
For the molecule `CCCCCCCCCC1CC(=O)N[C@H](CC(C)C)C(=O)N[C@@H](CO)C(=O)N[C@@H]([C@@H](C)O)C(=O)N[C@@H](Cc2ccccc2)C(=O)N[C@@H](CC(C)C)C(=O)O1` (stereo not given in full), the MIC is above 125 µg/mL.
`CCCCCCCCCC1CC(=O)N[C@H](CC(C)C)C(=O)N[C@@H](CO)C(=O)N[C@@H]([C@@H](C)O)C(=O)N[C@@H](Cc2ccccc2)C(=O)N[C@@H]([C@@H](C)CC)C(=O)O1` (stereo not given in full): the MIC was above 125 µg/mL.
On the same count and under the same terms, to `CCCCCCCCCC1CC(=O)N[C@@H](CC(C)C)C(=O)N[C@@H](CO)C(=O)N[C@@H]([C@@H](C)O)C(=O)N[C@@H](Cc2ccccc2)C(=O)N[C@@H](C(C)C)C(=O)O1` (stereo not given in full) belongs above 125 µg/mL.
Consider `CCCCCC1CC(=O)N[C@H](CC(C)C)C(=O)N[C@@H](CO)C(=O)N[C@@H]([C@@H](C)O)C(=O)N[C@@H](Cc2ccccc2)C(=O)N[C@@H](CC(C)C)C(=O)O1` (stereo not given in full), for which the MIC is above 125 µg/mL.
The same measure, in the same setting: to `CCCCCC1CC(=O)N[C@H](CC(C)C)C(=O)N[C@@H](CO)C(=O)N[C@@H]([C@@H](C)O)C(=O)N[C@@H](Cc2ccccc2)C(=O)N[C@@H](C(C)C)C(=O)O1` (stereo not given in full) belongs above 125 µg/mL.
As for `CCCCCC1CC(=O)N[C@H](CC(C)C)C(=O)N[C@@H](CO)C(=O)N[C@@H]([C@@H](C)O)C(=O)N[C@@H](Cc2ccccc2)C(=O)N[C@@H]([C@@H](C)CC)C(=O)O1` (stereo not given in full), the IC50 was found to be 53.1 µg/mL and the MIC came to 62.5 µg/mL.
